Measurements published in ChEMBL document CHEMBL2203009, “Synthesis of isoindole and benzoisoindole derivatives of teicoplanin pseudoaglycon with remarkable antibacterial and antiviral activities” (Bioorg Med Chem Lett, 2012).

Tests used:
Human alphaherpesvirus 2 = assay: Antiviral activity against HSV2 G infected in HEL cells assessed as inhibition of virus-induced cytopathic effect; type: functional, organism-based; details: Human alphaherpesvirus 2, strain G
[1] = system: Vesicular stomatitis virus; assay: Antiviral activity against Vesicular stomatitis virus infected in HEL cells assessed as inhibition of virus-induced cytopathic effect; type: functional, organism-based
Human alphaherpesvirus 1 [2] = assay: Antiviral activity against HSV1 KOS infected in HEL cells assessed as inhibition of virus-induced cytopathic effect; type: functional, organism-based; details: Human alphaherpesvirus 1, KOS
[3] = Toxicity in HEL cells assessed as induction of cell morphology changes; type: cell-based; details: human
Human alphaherpesvirus 1 [4] = assay: Antiviral activity against thymidine kinase deficient and acyclovir-resistant HSV1 KOS infected in HEL cells assessed as inhibition of virus-induced cytopathic effect; type: functional, organism-based; details: Human alphaherpesvirus 1, KOS
Vaccinia virus = assay: Antiviral activity against Vaccinia virus infected in HEL cells assessed as inhibition of virus-induced cytopathic effect; type: functional, organism-based; details: Orthopoxvirus vaccinia
Influenza A virus = assay: Antiviral activity against Influenza A virus (A/Puerto Rico/8/1934(H1N1)) H1N1 infected in MDCK cells assessed as inhibition of virus-induced cytopathic effect; type: functional, organism-based
[5] = Toxicity in MDCK cells assessed as induction of cell morphology changes; type: cell-based, Canis lupus familiaris; details: dog
Influenza B virus = assay: Antiviral activity against Influenza B virus (B/Hong Kong/05/1972) […] infected in MDCK cells assessed as inhibition of virus-induced cytopathic effect; type: functional, cell-based; details: B/Hong Kong/05/1972, MDCK
H3N2 subtype = assay: Antiviral activity against Influenza A virus (A/Hong Kong/7/1987(H3N2)) […] infected in MDCK cells assessed as inhibition of virus-induced cytopathic effect; type: functional, organism-based

| Compound | EC50 (Human alphaherpesvirus 2) [µM] | EC50 [1] [µM] | EC50 (Human alphaherpesvirus 1 [2]) [µM] | MCC [3] [µM] | EC50 (Human alphaherpesvirus 1 [4]) [µM] | EC50 (Vaccinia virus) [µM] | EC50 (Influenza A virus) [µM] | MCC [5] [µM] | EC50 (Influenza B virus) [µM] | EC50 (H3N2 subtype) [µM] |
| --- | --- | --- | --- | --- | --- | --- | --- | --- | --- | --- |
| Nc1nc2c(ncn2COCCO)c(=O)[nH]1 [ACYCLOVIR] | 0.14 | > 250 | 0.14 | > 250 | 44 | ≥ 250 | – | – | – | – |
| NC12CC3CC(CC(C3)C1)C2 [AMANTADINE] | – | – | – | – | – | – | 212 | ≥ 500 | > 500 | 0.45 |
| O=c1[nH]c(=O)n([C@H]2C[C@H](O)[C@@H](CO)O2)cc1/C=C/Br [BRIVUDINE] | 198 | > 250 | 0.024 | > 250 | 50 | 10 | – | – | – | – |
| Nc1ccn(C[C@@H](CO)OCP(=O)(O)O)c(=O)n1 [CIDOFOVIR] | 0.9 | > 250 | 1.5 | > 250 | 1.5 | 21 | – | – | – | – |
| Nc1nc2c(ncn2COC(CO)CO)c(=O)[nH]1 [GANCICLOVIR] | 0.013 | > 100 | 0.015 | > 100 | 4 | > 100 | – | – | – | – |
| NC(=O)c1ncn([C@@H]2O[C@H](CO)[C@@H](O)[C@H]2O)n1 [RIBAVIRIN] | – | – | – | – | – | – | 6.1 | – | 4.6 | 6 |
| CC(N)C12CC3CC(CC(C3)C1)C2 (stereo not drawn) [RIMANTADINE] | – | – | – | – | – | – | 14 | – | > 500 | 0.051 |
| CC(=O)N[C@H]1[C@H]([C@H](O)[C@H](O)CO)OC(C(=O)O)=C[C@@H]1NC(=N)N [ZANAMIVIR] | – | – | – | – | – | – | 1.6 | > 100 | 23 | 4.8 |
